According to ChEMBL document CHEMBL5584350, “Structural and Biochemical Insights into the Mechanism of Action of the Clinical USP1 Inhibitor, KSQ-4279” (J Med Chem, 2024):
Active and inactive are the calls of the source. The calls are words filed in the database; no cut-off is given here.

Tests used:
[1] = target: Ubiquitin carboxyl-terminal hydrolase 12 (Homo sapiens) (UniProt O75317); experiment: Inhibition of USP12 (unknown origin) at 10 uM relative to control
[2] = target: Ubiquitin carboxyl-terminal hydrolase 46 (Homo sapiens) (UniProt P62068); experiment: Inhibition of USP46 (unknown origin) at 10 uM relative to control
Sequence of Ubiquitin carboxyl-terminal hydrolase 46 (Homo sapiens) (P62068 whole entry, the tested form may be a part): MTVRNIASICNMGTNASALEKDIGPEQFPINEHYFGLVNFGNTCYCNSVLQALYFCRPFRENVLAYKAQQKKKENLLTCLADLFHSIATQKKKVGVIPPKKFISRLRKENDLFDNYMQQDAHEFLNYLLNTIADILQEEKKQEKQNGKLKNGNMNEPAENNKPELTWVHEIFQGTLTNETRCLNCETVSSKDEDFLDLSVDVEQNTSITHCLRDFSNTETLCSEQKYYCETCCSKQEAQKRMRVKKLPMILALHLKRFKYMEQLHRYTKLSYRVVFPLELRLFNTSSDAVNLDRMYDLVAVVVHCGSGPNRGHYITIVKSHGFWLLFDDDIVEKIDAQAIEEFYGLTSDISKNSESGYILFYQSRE

[3] = system: Ubiquitin carboxyl-terminal hydrolase 1 (Homo sapiens), O94782 [UNDEFINED MUTATION]; experiment: (§1) Binding affinity to human His6 tagged/TEV fused USP1 229 to 408/608 to 737 residues disordered inserts deletion mutant expressed in Sf21 insect cells assessed as displacement of N85 by measuring trypsin mediated protein truncation at F80 or R74 at 25 uM measured at 10 to 20 mins by instant-blue coomassie staining based SDS-PAGE analysis; conditions: time 10-20 min
[4] = system: Ubiquitin carboxyl-terminal hydrolase 1 (Homo sapiens), O94782 [UNDEFINED MUTATION]; experiment: as §1, with “alpha-chymotrypsin” for “trypsin”; conditions: time 10-20 min
[5] = target: T1, Ubiquitin carboxyl-terminal hydrolase 1 (Homo sapiens) (UniProt O94782); conditions: dose 50.0 µM
T1 sequence (whole entry): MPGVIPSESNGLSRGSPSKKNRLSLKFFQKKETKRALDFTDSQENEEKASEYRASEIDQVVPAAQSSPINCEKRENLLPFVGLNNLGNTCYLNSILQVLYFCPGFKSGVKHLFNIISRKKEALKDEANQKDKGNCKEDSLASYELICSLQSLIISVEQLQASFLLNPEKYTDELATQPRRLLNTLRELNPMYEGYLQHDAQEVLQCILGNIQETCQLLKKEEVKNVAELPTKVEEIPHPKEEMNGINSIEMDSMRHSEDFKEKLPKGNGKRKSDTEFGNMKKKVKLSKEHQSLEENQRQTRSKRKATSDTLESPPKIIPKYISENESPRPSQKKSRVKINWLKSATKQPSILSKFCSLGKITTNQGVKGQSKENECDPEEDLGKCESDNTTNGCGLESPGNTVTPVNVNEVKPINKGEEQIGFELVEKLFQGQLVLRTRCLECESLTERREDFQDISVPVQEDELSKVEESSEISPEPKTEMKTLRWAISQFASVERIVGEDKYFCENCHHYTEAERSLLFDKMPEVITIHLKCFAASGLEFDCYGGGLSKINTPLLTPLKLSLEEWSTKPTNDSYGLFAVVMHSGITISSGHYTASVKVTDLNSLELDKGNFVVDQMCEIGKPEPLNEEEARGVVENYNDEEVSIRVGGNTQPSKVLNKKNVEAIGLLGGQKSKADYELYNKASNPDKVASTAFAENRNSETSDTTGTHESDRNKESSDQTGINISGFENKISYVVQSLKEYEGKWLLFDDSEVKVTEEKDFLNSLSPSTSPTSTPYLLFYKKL
Description: Thermal stabilization of human USP1 assessed as increase in melting temperature at 50 uM by SYPRO Orange dye based thermal shift assay

[6] = target: T1, Ubiquitin carboxyl-terminal hydrolase 1 (Homo sapiens); experiment: Inhibition of human USP1 using FANC1-FANCD2Ub-ds DNA as substrate assessed as reduction in FANCD2 deubiquitination at 25 uM measured after 0 to 20 mins by instant-blue coomassie staining based SDS-PAGE analysis; conditions: time 0-20 min
Homo sapiens = organism: Homo sapiens; experiment: Thermal stabilization of human His6-smt3 fused USP7 catalytic domain (208 to 560 residues) expressed in Escherichia coli assessed as increase in melting temperature at 50 uM by SYPRO orange dye based thermal shift assay
[7] = target: Ubiquitin carboxyl-terminal hydrolase 11 (Homo sapiens) (UniProt P51784); experiment: Inhibition of USP11 (unknown origin)
Sequence of Ubiquitin carboxyl-terminal hydrolase 11 (Homo sapiens) (P51784 whole entry): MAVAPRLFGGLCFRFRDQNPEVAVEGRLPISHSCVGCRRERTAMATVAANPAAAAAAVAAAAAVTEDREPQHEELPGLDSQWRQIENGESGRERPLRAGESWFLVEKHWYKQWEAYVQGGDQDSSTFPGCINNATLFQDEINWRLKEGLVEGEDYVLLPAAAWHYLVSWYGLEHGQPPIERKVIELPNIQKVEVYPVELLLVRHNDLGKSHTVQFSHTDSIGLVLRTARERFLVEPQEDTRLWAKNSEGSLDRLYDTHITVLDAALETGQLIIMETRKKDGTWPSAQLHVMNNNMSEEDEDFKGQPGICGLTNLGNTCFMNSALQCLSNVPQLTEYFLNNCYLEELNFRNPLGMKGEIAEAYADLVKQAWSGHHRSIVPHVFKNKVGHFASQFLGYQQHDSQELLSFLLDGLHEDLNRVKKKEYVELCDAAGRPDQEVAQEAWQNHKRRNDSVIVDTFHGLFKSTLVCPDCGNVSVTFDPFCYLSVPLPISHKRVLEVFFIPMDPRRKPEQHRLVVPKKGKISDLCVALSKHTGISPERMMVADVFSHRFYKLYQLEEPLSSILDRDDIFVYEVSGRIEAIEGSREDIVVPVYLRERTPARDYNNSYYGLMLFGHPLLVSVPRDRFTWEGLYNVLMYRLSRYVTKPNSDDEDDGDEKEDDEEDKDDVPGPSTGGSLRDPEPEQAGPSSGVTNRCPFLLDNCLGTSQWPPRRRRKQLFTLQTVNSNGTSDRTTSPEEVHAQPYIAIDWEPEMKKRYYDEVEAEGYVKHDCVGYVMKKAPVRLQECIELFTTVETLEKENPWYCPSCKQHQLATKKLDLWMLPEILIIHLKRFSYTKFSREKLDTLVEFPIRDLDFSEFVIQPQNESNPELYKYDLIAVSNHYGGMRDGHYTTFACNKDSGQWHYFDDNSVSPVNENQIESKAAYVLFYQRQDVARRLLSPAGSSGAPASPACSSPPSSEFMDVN

[8] = Selectivity index, ratio of inhibition of USP12 (unknown origin) to IC50 for human USP1
[9] = target: Ubiquitin carboxyl-terminal hydrolase 12 (Homo sapiens) (UniProt O75317); experiment: Inhibition of human USP12 at 100 uM by ubiquitin-rhodamine assay relative to control
[10] = target: Ubiquitin carboxyl-terminal hydrolase 46 (Homo sapiens) (UniProt P62068); experiment: Inhibition of human USP46 at 100 uM by ubiquitin-rhodamine assay relative to control

Sequence of Ubiquitin carboxyl-terminal hydrolase 12 (Homo sapiens) (O75317 whole entry): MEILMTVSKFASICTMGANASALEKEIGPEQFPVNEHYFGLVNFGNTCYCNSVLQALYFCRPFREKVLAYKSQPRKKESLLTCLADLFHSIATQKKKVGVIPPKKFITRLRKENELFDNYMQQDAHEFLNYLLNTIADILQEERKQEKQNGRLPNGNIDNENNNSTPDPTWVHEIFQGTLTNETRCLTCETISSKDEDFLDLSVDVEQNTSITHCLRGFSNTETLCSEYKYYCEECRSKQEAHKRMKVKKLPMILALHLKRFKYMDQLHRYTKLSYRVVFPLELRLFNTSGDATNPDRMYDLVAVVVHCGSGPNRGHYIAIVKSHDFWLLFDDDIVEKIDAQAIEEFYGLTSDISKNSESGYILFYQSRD

Structure (SMILES): CC(C)c1ccccc1-c1ncc2[nH]c(=O)n(Cc3ccc(-c4nc(C(F)(F)F)cn4C)cc3)c2n1
- inhibition [1]: 50%
- inhibition [2]: 50%

Structure (SMILES): O=C1c2ccccc2C(=O)c2oc(-c3ccccc3)nc21
- Activity [3]: inactive
- Activity [4]: inactive

Structure (SMILES): Cc1cnc(-c2ccccc2C(C)C)nc1NCc1ccc(-n2ccnn2)cc1
- ΔTm [5]: 11 °C
- inhibition [6]: inactive
- Activity (Homo sapiens): inactive
- inhibition [7]: inactive
- Selectivity Index [8]: 100

Structure (SMILES): COc1ncnc(C2CC2)c1-c1ncc2cnn(Cc3ccc(-c4nc(C(F)(F)F)cn4C(C)C)cc3)c2n1
- inhibition [9]: < 50%
- inhibition [10]: < 50%
- Activity (Homo sapiens): inactive
- inhibition [7]: inactive
